{
  "source": "patent US20220380341A1",
  "about": "“INHIBITORS OF HIV-1 NEF FOR THE TREATMENT OF HIV DISEASE” (priority 2018, published 2022)",
  "key": {"HIV-1NL4-3": {"tested_on": "HIV-1NL4-3", "experiment": "HIV-1 infectivity assay in TZM-bl reporter cell line (LTR-luciferase, 48 h)", "format": "cell-based", "conditions": "Human immunodeficiency virus 1, TZM-bl", "procedure,_shortened": "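Luciferase read-out 48 h post-infection; compound at 1 μM during HIV-1NL4-3 infection of TZM-bl cells. Percent inhibition scaled to DMSO wild-type virus (0%) and DMSO Nef-defective virus (100% of Nef-dependent effect). Viability checked separately in uninfected cells by Cell Titer Blue.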"}, "TZM-bl cell line": {"tested_on": "TZM-bl cell line", "format": "cell-based", "conditions": "human, 1 μM", "procedure,_shortened": "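Read-out is luciferase from an integrated HIV-1 LTR reporter in TZM-bl cells, 48 h after HIV-1NL4-3 infection in the presence of 1 μM compound. Scale set by DMSO-treated wild-type-infected cells (0%) and Nef-defective virus (100% Nef-dependent effect). Cell Titer Blue measures cytotoxicity without virus.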"}, "HIV-1 NefNL4-3": {"molecular_target": "HIV-1 NefNL4-3 (Human immunodeficiency virus type 1 group M subtype B, UniProt P03406, A33V/T15A/T51N/V11I)", "experiment": "Surface plasmon resonance binding to recombinant full-length Nef (NL4-3)"}, "HIV-1 Nef SF2": {"molecular_target": "T1, HIV-1 Nef SF2 (Human immunodeficiency virus type 1 group M subtype B, UniProt P03407)", "T1 construct": "made in house", "experiment": "biochemical", "format": "binding", "conditions": "two-step induced-fit model, Reichert SPR, read-out: Reichert SPR Nef SF2 (M) two-step fitting"}, "HIV-1 NL4-3": {"tested_on": "HIV-1 NL4-3", "experiment": "HIV-1 replication in normal donor PBMCs (p24 Gag AlphaLISA)", "format": "cell-based", "conditions": "Table 1, 4 days, words (Not active, Borderline) where no bound is given", "procedure,_shortened": "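PHA/IL-2-activated donor PBMCs infected with HIV-1 NL4-3, wild-type or Δ-Nef, with inhibitor (1–1,000 nM, 0.1% DMSO) in IL-2 medium. Lysates taken after 4 days and p24 quantified by AlphaLISA against a p24 standard; IC50 by non-linear regression, CC50 by CellTiter-Blue in uninfected cells.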"}, "uninfected PBMCs": {"tested_on": "uninfected PBMCs", "format": "cell-based", "conditions": "human", "experimental": "FIG. 4. Inhibition of HIV-1 replication by compounds disclosed herein in PBMCs. Donor PBMCs were infected with HIV-1 in the presence of inhibitor concentrations ranging from 1 to 1,000 nM or the DMSO carrier solvent as a negative control (0.1% DMSO final). Replication was assessed by p24 Gag AlphaLISA (Perkin Elmer) […]. Each donor was also infected with Nef-defective HIV-1 to establish the baseline for Nef-dependent enhancement of replication in each culture. Cytotoxicity was assessed in uninfected PBMCs over the same incubation period using the CellTiter-Blue assay (Promega). Data were fit by non-linear regression analysis (GraphPad Prism v.7.04) to determine the IC50 and CC50 values shown.\nNon-HLA-typed buffy coats (Source: Pittsburgh Central Blood Bank, #E3755) are received and processed within 24 hours of blood donation. PBMCs are isolated via rocking for RBC separation following 1:1 dilution with PBS, followed by Ficoll gradient centrifugation. The lymphocyte fraction is removed and washed several times for a final concentration of ˜150-300×10^6 cells per donor. Cells are activated for 3 days with 1-5 μg/mL PHA (Sigma) and 50 U/mL IL-2. Cells are plated at 750,000 cells/ml and viability is checked at day 3 using the Cell Titer Blue assay (Promega). If cells are >90% viable, then they are infected with HIV-1 NL4-3, wild-type or Δ-Nef mutant (input typically 30-500 pg/mL p24 capsid equivalents) in the presence or absence of Nef inhibitor analogs. IL-2 is included in the media at the time of infection. After 4 days, cells are lysed with 1% Triton X-100 for 1.5 h, checked for viability via Cell Titer Blue, and frozen/stored at −20° C. HIV-1 replication is assessed with a high-sensitivity HIV-1 p24 AlphaLISA assay (Perkin Elmer) in ½-volume 96-well plates, using one-half of the recommended assay volumes for all reagents (including samples). Assays are read on the BioTek Cytation5 instrument; readout is in AlphaUnits and replication in p24 pg/mL is determined using an HIV-1 p24 capsid protein standard included in the Alpha kit."}, "[1]": {"molecular_target": "Nef from SIV (strain mac239) (Simian immunodeficiency virus, UniProt Q5QGG3)", "experiment": "biochemical", "protocol": "Also shown are SPR data recorded on a Reichert 4-channel SPR instrument. […] Recombinant Nef is immobilized on the biosensor surface, and each compound is injected and association/dissociation kinetics are recorded. The resulting data for the 3 isoforms are each best-fit using both a two-site model and a two-step, induced-fit model. Dissociation constants (KD), calculated from the kinetic association and dissociation constants from all three isoforms, are shown in columns 6-7. Data were fit using three regimes and the resulting KD: from each model are shown in the Table: 1:1 Langmuir fit; 2-site fit, which yields low and high affinity components; and a 2-step induced fit model."}},
  "note": "Read-outs that look alike come from different tables or passages of the source.",
  "data": [
    {"smiles": "CC(C)COC(=O)N1CCC(c2nn(-c3nc4ccccc4[nH]3)c(O)c2CCc2ccc(F)cc2)CC1", "note": "[Compound I-721, 2-methylpropyl 4-[1-(1H-1,3-benzodiazol-2-yl)-4-[2-(4-fluorophenyl)ethyl]-5-hydroxy-1H-pyrazol-3-yl]piperidine-1-carboxylate]", "values": [
      {"measurement": "inhibition at 1 µM", "setting": "HIV-1NL4-3; 1.0 μM, TZM-bl reporter cell line, Table 4, read-out: % Infectivity Inhibition", "value": 100, "unit": "%"},
      {"measurement": "inhibition at 1 µM", "setting": "HIV-1NL4-3; 1 μM, TZM-bl, normalized: DMSO wild-type HIV-1 = 0%, Nef-defective HIV-1 = 100%, read-out: HIV-1 Infectivity % Inhibition norm. to Δ-Nef @ 1 μM", "value": 120, "unit": "%"},
      {"measurement": "inhibition at 1 µM", "setting": "HIV-1NL4-3; 48 h, Table 1, TZM-bl cells, 1 μM, 48 h, 100% = Nef-defective HIV-1, read-out: HIV-1 Infectivity % Inhibition Norm. to Δ-Nef @ 1 μM", "value": 120, "unit": "%"},
      {"measurement": "% Cell Viability", "setting": "TZM-bl cell line", "value": 84.3, "unit": "%"},
      {"measurement": "Percent Viability @ 1 μM (TZM-bl cells)", "setting": "TZM-bl cell line", "value": 84.3, "unit": "%"},
      {"measurement": "Kd", "setting": "HIV-1 NefNL4-3", "value": "2.24e-07", "unit": "M"},
      {"measurement": "Kd", "setting": "HIV-1 NefNL4-3; KD, M, Table 4, SPR fit 2-step induced fit, KD = koff/kon × koff2/(koff2 + kon2)", "value": "3.72e-05", "unit": "M"},
      {"measurement": "Kd", "setting": "HIV-1 NefNL4-3; Nef NL4-3 Binding, SPR 2-state fitting KD, Table 1, 2-step induced-fit model", "value": "3.72e-05", "unit": "M"},
      {"measurement": "Kd", "setting": "HIV-1 NefNL4-3; Reichert SPR Nef NL43 (M) two-step fitting, KD, two-step induced-fit model, Reichert SPR, Table 3", "value": "3.72e-05", "unit": "M"},
      {"measurement": "T, minutes (residence time)", "setting": "HIV-1 NefNL4-3; Table 4, 2-step induced fit, T = 1/koff2", "value": 4.69, "unit": "E + 02 minutes"},
      {"measurement": "Kd", "setting": "HIV-1 NefNL4-3; read-out: Nef NL4-3 Binding, SPR 1:1 or 2-site fitting KD2, Table 1, 2-site fit, second component", "value": "1.76e-06", "unit": "M"},
      {"measurement": "RU30/RUNef (extent of binding)", "setting": "HIV-1 NefNL4-3; response units at 30 μM relative to Nef immobilized on the SPR chip", "value": 1.20, "unit": "E- 02"},
      {"measurement": "Kd", "setting": "HIV-1 Nef SF2", "value": "5.88e-06", "unit": "M"},
      {"measurement": "HIV Replication PBMC IC50 vs. HIV NL4-3", "setting": "HIV-1 NL4-3", "value": "Borderline"},
      {"measurement": "Toxicity in HIV Replication PBMC (Toxic @ concentration)", "setting": "uninfected PBMCs", "value": "Toxic @ 10 nM"},
      {"measurement": "Kd", "setting": "[1]", "value": 0.0826, "unit": "µM"}
    ]}
  ]
}
